Six compounds from publication PMC5308787, “Isoprenoid-phospholipid conjugates as potential therapeutic agents: Synthesis, characterization and antiproliferative studies” (PLoS ONE, 2017) can be followed below.

As a reminder, the IC50 is the point on the concentration scale where inhibition reaches its midpoint.

The structures appear in SMILES notation.

Assay [1] concerns A-549 (non-small cell lung cancer). In words: Antiproliferative SRB assay, 72 h exposure. Type of assay: cell-based, human. The note with it: Homo sapiens, A549, mean ± SD of 3–5 experiments, n.a. = no activity in concentration of 5, 25, 125, 625 μM. The protocol:
(§1) The biological studies were performed in vitro using human cancer cell lines: MV4-11 (human biphenotypic B myelomonocytic leukaemia), A-549 (non-small cell lung cancer), MCF-7 (breast cancer), LoVo (colon cancer), LoVo/DX (colon cancer drug resistant), HepG2 (liver cancer) and BALB/3T3 (normal mice fibroblasts). These lines were obtained from American Type Culture Collection (Rockville, Maryland, U.S.A.). The cell line is being maintained in the Institute of Immunology and Experimental Therapy, Wroclaw, Poland. All cell lines were grown at 37°C with 5% CO2 humidified atmosphere and were cultured in cultured medium according to the method described before.
(§2) Prior to usage, the compounds were dissolved in DMSO or in mixture of 99.8% ethanol and DMSO (1:1) to the concentration of 25 or 50 mM, and subsequently diluted in culture medium to reach the required concentrations (ranging from 5 to 625 μM).
(§3) Twenty-four hours prior to the addition of tested compounds, the cells were plated in 96-well plates (Sarstedt, Germany) at a density of 1 × 10^4 cells per well in 100 μL of culture medium. The assay was performed after 72 h of exposure to varying concentrations of the tested agents. The in vitro cytotoxic effect of tested agents was examined using the MTT (for MV4-11 cells) or SRB assay which were described previously. Each compound in each concentration was tested in triplicate in a single experiment, which was repeated 3–5 times.
(§4) The results of antiproliferative activity were given as IC50 values. Using this parameter we calculated also the resistance indexes (RI) dividing the IC50 values of selected compounds estimated for drug resistant cell LOVO/DX line by respective values designated for drug sensitive LoVo line. According to Harker et al. three categories of the cells could be distinguished: (a) the cells are drug-sensitive—if the ratio approaches 0–2; (b) the cells are moderately drug-resistant—if the ratio ranges from 2 to 10; (c) the cells are markedly drug-resistant—if the ratio is higher than 10.
Background: In SRB staining, fixed cells bind dye roughly in proportion to their protein.

The test system of assay [2] is LoVo/DX (colon cancer drug resistant). Put plainly: Antiproliferative SRB assay, 72 h exposure. It counts as cell-based, human. To be noted: Homo sapiens, LoVo/DX, mean ± SD of 3–5 experiments, n.a. = no activity in concentration of 5, 25, 125, 625 μM. The protocol:
as §1, §2, §3, §4

Assay [3] deals with HepG2 (liver cancer). In words: Antiproliferative SRB assay, 72 h exposure. To be noted: Homo sapiens, HepG2, mean ± SD of 3–5 experiments, n.a. = no activity in concentration of 5, 25, 125, 625 μM. Type of assay: cell-based, human. As for the experimental part: as §1, §2, §3, §4
In assay [4] the test system is MCF-7 (breast cancer). In words: Antiproliferative SRB assay, 72 h exposure. It counts as cell-based, human. The note with it: Homo sapiens, MCF7, mean ± SD of 3–5 experiments, n.a. = no activity in concentration of 5, 25, 125, 625 μM. As for the experimental part: as §1, §2, §3, §4
Assay [5] relates to LoVo (colon cancer). In words: Antiproliferative SRB assay, 72 h exposure. Type of assay: cell-based, human. The note with it: LoVo; for IC50: Homo sapiens, SRB, 72 h, mean ± SD of 3–5 experiments, n.a. = no activity in concentration of 5, 25, 125, 625 μM. As for the experimental part:
as §1, §2, §3, §4

For assay [6], the system named is BALB/3T3 (normal mice fibroblasts). Put plainly: Antiproliferative SRB assay, 72 h exposure. To be noted: Mus musculus, BALB/3T3, mean ± SD of 3–5 experiments, n.a. = no activity in concentration of 5, 25, 125, 625 μM. Type of assay: cell-based. As for the experimental part:
as §1, §2, §3, §4

Assay [7] relates to drug resistant LOVO/DX line vs drug sensitive LoVo line. In words: Resistance index (RI): IC50 LOVO/DX divided by IC50 LoVo. Type of assay: cell-based, human. To be noted: for Resistance index (RI): RI = IC50 resistant line / IC50 non-resistant line, 0<RI<2 able to overcome drug resistance, 2<RI<10 moderate ability, RI>10 no influence; for able to overcome the barrier of P-gp-dependent resistance: judged from RI.
Source text: as §4

Assay [8] relates to MV4-11 (human biphenotypic B myelomonocytic leukaemia). Put plainly: Antiproliferative MTT assay, 72 h exposure. It counts as cell-based. To be noted: Homo sapiens, MV4-11, mean ± SD of 3–5 independent experiments. The protocol: as §1, §2, §3, §4
For assay [9], the system named is lung (A549), colon (LoVo) and liver (HepG2) cancer cell lines. Put plainly: Antiproliferative activity, range over several cancer cell lines as stated in text. Type of assay: cell-based. To be noted: Homo sapiens, read-out: IC50 against lung (A549), colon (LoVo) and liver (HepG2) cancer cell lines. As for the experimental part: as §1, §2
Twenty-four hours prior to the addition of tested compounds, the cells were plated in 96-well plates (Sarstedt, Germany) at a density of 1 × 10^4 cells per well in 100 μL of culture medium. […]
The results of antiproliferative activity were given as IC50 values. Using this parameter we calculated also the resistance indexes (RI) dividing the IC50 values of selected compounds estimated for drug resistant cell LOVO/DX line by respective values designated for drug sensitive LoVo line. […]

Regarding `C=CC(C)(CC/C=C(\C)CCC=C(C)C)CC(=O)O[C@H](COC(=O)CCCCCCCCCCCCCCC)COP(=O)([O-])OCC[N+](C)(C)C` (stereo partly drawn) [Compound 7b, (2'R)-1’-palmitoyl-2’-[(3R,6E)-3,7,11-trimethyl-3-vinyldodeca-6,10-dienyl]-sn-glycero-3’-phosphocholine + (2'R)-1’-palmitoyl-2’-[(3S,6E)-3,7,11-trimethyl-3-vinyldodeca-6,10-dienyl]-sn-glycero-3’-phosphocholine], the half-maximal inhibitory concentration (IC50) in [1] was 111 ± 12.9 µM; in [2], 486 ± 17.4 µM; in [3], 272 ± 24.7 µM; in assay [4], 98.7 ± 15.6 µM; in assay [5] it was 251 ± 22.7 µM; in [6] it was 518 ± 69.8 µM. In assay [8], it took 50.3 ± 5.37 µM to reach half-maximal inhibition (IC50). For the same compound, the “Resistance index (RI)” value in assay [7] was determined as 1.16.

Consider `C=CC(C)(CC/C=C(\C)CCC=C(C)C)CC(=O)OC[C@@H](O)COP(=O)([O-])OCC[N+](C)(C)C` (stereo partly shown) [Compound 8b], for which the 50% inhibitory concentration (IC50) in assay [1] stood at 260 ± 33.6 µM; in [2], 280 ± 44.4 µM; in [3], 344 ± 40.9 µM; in [4] it was 250 ± 45.2 µM; in [5], 241 ± 15.1 µM; in assay [6], 297 ± 18.6 µM. In [8], the IC50 was 112 ± 39.8 µM. The “Resistance index (RI)” value in assay [7] was 1.99.

With `C=CC(C)(CC/C=C(\C)CCC=C(C)C)CC(=O)OC[C@H](COP(=O)([O-])OCC[N+](C)(C)C)OC(=O)CC(C)(C=C)CC/C=C(\C)CCC=C(C)C` (stereo partly shown) [Compound 6b], the 50% inhibitory concentration (IC50) in assay [1] came to 30.4 ± 1.5 µM; in assay [2], 57.6 ± 0.6 µM; in assay [3] it was 53.6 ± 5.1 µM; in assay [4], 45 ± 1.4 µM; in assay [5] it was 13.6 ± 0.7 µM; in assay [6] it was 57.8 ± 1.4 µM. In addition, the concentration for half-maximal inhibition (IC50) in [9] is 13.6 to 57.8 µM; in assay [8], 27.8 ± 7.52 µM. In addition, the “activity against colon cancer cell line, fold lower than cisplatin” value in assay [5] came out at 5 fold. Further, the “able to overcome the barrier of P-gp-dependent resistance” value (“able … of P-gp-dependent resistance” below) in assay [7] was “exception”.

Turning to `CCCC=C1C(C)(C)CCCC1(C)CC(=O)O` (stereo not shown) [3 (DAA), 2-(2-butylidene-1,3,3-trimethylcyclohexyl)-acetic acid], the half-maximal inhibitory concentration (IC50) in assay [1] was 150 ± 16.8 µM; in assay [2], 109 ± 16 µM; in assay [3] it was 274 ± 12 µM; in assay [4], 231 ± 43.2 µM; in assay [5], 173 ± 38.7 µM; in [6], 297 ± 14.4 µM. The same compound gave an IC50 in [8] of 132 ± 52.7 µM. Also, the “Resistance index (RI)” value in assay [7] came to 0.63.

Regarding `C=CC(C)(CCC=C(C)C)CC(=O)O[C@H](COC(=O)CCCCCCCCCCCCCCC)COP(=O)([O-])OCC[N+](C)(C)C` (stereo partly drawn) [Compound 7a, (2’R)-1’-palmitoyl-2’-[(3R)-3,7-dimethyl-3-vinylocta-6-enyl]-sn-glycero-3’-phosphocholine + (2’R)-1’-palmitoyl-2’-[(3S)-3,7-dimethyl-3-vinylocta-6-enyl]-sn-glycero-3’-phosphocholine], the IC50 in assay [1] is 72.6 ± 1.6 µM; in assay [2] it was 154 ± 7.9 µM; in assay [3], 159 ± 31.2 µM; in assay [4], 66.6 ± 4.2 µM; in assay [5], 57.4 ± 0.7 µM; in [6] it was 246 ± 13.9 µM. For the same compound, the concentration for half-maximal inhibition (IC50) in assay [8] is 95 ± 15.2 µM. Further, in assay [7], the “Resistance index (RI)” value came out at 1.91. Moreover, in assay [7], the “able … of P-gp-dependent resistance” value was “exception”.

In the case of `CCC/C=C1/C(C)(C)CCCC1(C)CC(=O)O[C@H](COC(=O)CCCCCCCCCCCCCCC)COP(=O)([O-])OCC[N+](C)(C)C` (stereo partly drawn) [Compound 7c, (2’R)-1’-palmitoyl-2’-{2-[(3R,2"E)-2"-butylidene-1",3",3"-trimethyl]cyclohexyl}acetyl-sn-glycero-3’-phospocholine + (2’R)-1’-palmitoyl-2’-{2-[(3S,2"E)-2"-butylidene-1",3",3"-trimethyl]cyclohexyl}acetyl-sn-glycero-3’-phospocholine], the IC50 in assay [1] turned out to be 75.7 ± 10.6 µM; in [2], 111 ± 19.4 µM; in assay [3], 134 ± 51 µM; in [4] it was 89.7 ± 11.3 µM; in [5], 54.4 ± 3.2 µM; in assay [6], 276 ± 25.7 µM. For the same compound, inhibition in [8] was half-maximal at 65.1 ± 12.2 µM (IC50). Moreover, the “Resistance index (RI)” value in [7] was 1.35. Further, the “able … of P-gp-dependent resistance” value in assay [7] was “exception”.
